From the NIST ThermoML archive (doi:10.1016/j.jct.2005.02.004)
Numbers after ± are expanded uncertainties.

Test: mn = molality of the nth substance listed, in mol/kg
Settings: Liquid, Vibrating tube method

[Br-].[Br-].[Zn+2] [zinc bromide] + CO
Settings	mass density [kg/m3]
298.27 K, 175 kPa, m1 = 0.7158	902.32 ± 0.43
298.27 K, 206 kPa, m1 = 0.3785	853.39 ± 0.44
298.27 K, 206 kPa, m1 = 1.951	1072.66 ± 0.44
298.27 K, 4983 kPa, m1 = 1.951	1077.46 ± 0.44
298.27 K, 4990 kPa, m1 = 0.3785	858.17 ± 0.45
298.27 K, 4998 kPa, m1 = 0.7158	907.05 ± 0.44
298.27 K, 9995 kPa, m1 = 1.951	1082.31 ± 0.44
298.27 K, 10009 kPa, m1 = 0.7158	911.75 ± 0.44
298.27 K, 10013 kPa, m1 = 0.3785	862.94 ± 0.45
298.27 K, 14985 kPa, m1 = 0.7158	916.21 ± 0.44
298.27 K, 14995 kPa, m1 = 0.3785	867.44 ± 0.46
298.27 K, 15001 kPa, m1 = 1.951	1087.02 ± 0.45
298.27 K, 19983 kPa, m1 = 1.951	1091.45 ± 0.45
298.27 K, 19984 kPa, m1 = 0.3785	871.75 ± 0.47
298.27 K, 19989 kPa, m1 = 0.7158	920.51 ± 0.44
298.27 K, 24990 kPa, m1 = 1.951	1095.81 ± 0.46
298.27 K, 25018 kPa, m1 = 0.3785	875.78 ± 0.47
298.27 K, 25019 kPa, m1 = 0.7158	924.66 ± 0.45
298.27 K, 29988 kPa, m1 = 0.3785	879.71 ± 0.48
298.27 K, 29996 kPa, m1 = 1.951	1100.02 ± 0.46
298.27 K, 34982 kPa, m1 = 0.3785	883.51 ± 0.49
298.27 K, 34985 kPa, m1 = 0.7158	932.44 ± 0.45
298.27 K, 34998 kPa, m1 = 1.951	1104.11 ± 0.47
298.27 K, 35000 kPa, m1 = 0.7158	932.43 ± 0.45
298.27 K, 39992 kPa, m1 = 0.7158	936.16 ± 0.45
298.27 K, 40008 kPa, m1 = 0.3785	887.18 ± 0.49
298.27 K, 40010 kPa, m1 = 1.951	1108.09 ± 0.48
298.28 K, 200 kPa, m1 = 0.05772	797.74 ± 0.45
298.28 K, 4999 kPa, m1 = 0.05772	802.42 ± 0.46
298.28 K, 9984 kPa, m1 = 0.05772	807.04 ± 0.47
298.28 K, 14988 kPa, m1 = 0.05772	811.39 ± 0.48
298.28 K, 19994 kPa, m1 = 0.05772	815.58 ± 0.5
298.28 K, 24988 kPa, m1 = 0.05772	819.58 ± 0.51
298.28 K, 29998 kPa, m1 = 0.05772	823.42 ± 0.52
298.28 K, 34981 kPa, m1 = 0.05772	827.09 ± 0.54
298.28 K, 40008 kPa, m1 = 0.05772	830.66 ± 0.55
323.22 K, 212 kPa, m1 = 0.7158	876.52 ± 0.44
323.22 K, 228 kPa, m1 = 0.3785	828.32 ± 0.45
323.22 K, 230 kPa, m1 = 0.05772	773.97 ± 0.45
323.22 K, 245 kPa, m1 = 1.951	1042.34 ± 0.43
323.22 K, 4983 kPa, m1 = 0.3785	833.75 ± 0.45
323.22 K, 4994 kPa, m1 = 0.05772	779.33 ± 0.46
323.22 K, 5004 kPa, m1 = 1.951	1047.72 ± 0.43
323.22 K, 5010 kPa, m1 = 0.7158	881.93 ± 0.44
323.22 K, 9982 kPa, m1 = 1.951	1053.09 ± 0.44
323.22 K, 9993 kPa, m1 = 0.3785	839.12 ± 0.46
323.22 K, 9999 kPa, m1 = 0.7158	887.26 ± 0.44
323.22 K, 10015 kPa, m1 = 0.05772	784.65 ± 0.48
323.22 K, 14987 kPa, m1 = 1.951	1058.26 ± 0.44
323.22 K, 14997 kPa, m1 = 0.05772	789.6 ± 0.49
323.22 K, 14997 kPa, m1 = 0.3785	844.21 ± 0.47
323.22 K, 15018 kPa, m1 = 0.7158	892.34 ± 0.45
323.22 K, 19990 kPa, m1 = 0.3785	849.04 ± 0.47
323.22 K, 19994 kPa, m1 = 0.7158	897.14 ± 0.45
323.22 K, 20007 kPa, m1 = 0.05772	794.31 ± 0.5
323.22 K, 20009 kPa, m1 = 1.951	1063.24 ± 0.44
323.22 K, 24981 kPa, m1 = 0.7158	901.73 ± 0.45
323.22 K, 24985 kPa, m1 = 0.05772	798.77 ± 0.52
323.22 K, 24994 kPa, m1 = 0.3785	853.6 ± 0.48
323.22 K, 24998 kPa, m1 = 1.951	1068 ± 0.45
323.22 K, 29987 kPa, m1 = 0.7158	906.15 ± 0.46
323.22 K, 29997 kPa, m1 = 1.951	1072.61 ± 0.45
323.22 K, 30012 kPa, m1 = 0.05772	803.09 ± 0.54
323.22 K, 30016 kPa, m1 = 0.3785	857.92 ± 0.49
323.22 K, 34994 kPa, m1 = 0.7158	910.38 ± 0.46
323.22 K, 34996 kPa, m1 = 0.05772	807.14 ± 0.55
323.22 K, 34997 kPa, m1 = 0.3785	862.1 ± 0.5
323.22 K, 35003 kPa, m1 = 1.951	1077.08 ± 0.46
323.22 K, 39988 kPa, m1 = 0.3785	866.11 ± 0.51
323.22 K, 39997 kPa, m1 = 0.7158	914.47 ± 0.46
323.22 K, 39998 kPa, m1 = 0.05772	811.05 ± 0.57
323.22 K, 40001 kPa, m1 = 1.951	1081.4 ± 0.46
348.23 K, 311 kPa, m1 = 0.3785	802.57 ± 0.45
348.23 K, 316 kPa, m1 = 0.7158	850.07 ± 0.44
348.23 K, 4989 kPa, m1 = 0.7158	856.15 ± 0.44
348.23 K, 5006 kPa, m1 = 0.3785	808.74 ± 0.45
348.23 K, 9999 kPa, m1 = 0.3785	814.86 ± 0.46
348.23 K, 10009 kPa, m1 = 0.7158	862.27 ± 0.45
348.23 K, 14998 kPa, m1 = 0.7158	868 ± 0.45
348.23 K, 15007 kPa, m1 = 0.3785	820.6 ± 0.47
348.23 K, 19987 kPa, m1 = 0.3785	825.97 ± 0.48
348.23 K, 19998 kPa, m1 = 0.7158	873.4 ± 0.46
348.23 K, 24998 kPa, m1 = 0.3785	831.08 ± 0.49
348.23 K, 25006 kPa, m1 = 0.7158	878.54 ± 0.46
348.23 K, 29987 kPa, m1 = 0.7158	883.42 ± 0.47
348.23 K, 29988 kPa, m1 = 0.3785	835.92 ± 0.51
348.23 K, 34986 kPa, m1 = 0.7158	888.06 ± 0.47
348.23 K, 35004 kPa, m1 = 0.3785	840.55 ± 0.52
348.23 K, 40002 kPa, m1 = 0.7158	892.55 ± 0.48
348.23 K, 40007 kPa, m1 = 0.3785	844.98 ± 0.53
